The subject of experiment [1] is pCXN2-G6-transfected HCT-15 cell. The experiment can be described thus: Sugar chain synthesis inhibitors: FACS analysis with OSK28 of poly-N-acetyllactosamine sugar chains. It counts as cell-based, human. The note with it: cultured for 5 days. The protocol:
The HCT-15 cells transfected with pCXN2-G6 or pCXN2 prepared in the above (2) (each 5×10^6 cells) were washed by using 3 ml of a phosphate buffer PBS (8 g/l NaCl, 0.2 g/l KCl, 1.15 g/l Na2HPO4 (anhydrous) and 0.2 g/l KH2PO4).
The cells (about 1×10^6 cells) described above were put into a microtube (1.5 ml, manufactured by Eppendorf) and the cells were collected by centrifugation (550×g, 7 minutes).
The cells were washed with 0.9 ml of 0.1% sodium azide-containing PBS (A-PBS: 8 g/l NaCl, 0.2 g/l KCl, 1.15 g/l Na2HPO4 (anhydrous), 0.2 g/l KH2PO4 and 0.1% sodium azide), and then the washed cells were suspended in 100 μl of an antibody (OSK28) capable of recognizing a poly-N-acetyllactosamine sugar chain diluted with A-PBS to give a concentration of 10 μg/ml (20 times dilution of the following purified antibody) and allowed to react at 4° C. for 30 minutes in the dark.
After the reaction, the cells are washed twice with 3 ml of A-PBS, suspended in 100 μl of an FITC-labeled anti-human IgM antibody [manufactured by Medical & Biological Laboratories (MBL)] diluted to 10 μg/ml, and then allowed to react at 4° C. for 1 hour. After the reaction, the cells were washed twice with 3 ml of A-PBS, suspended in 200 μl of PBS containing 0.5% p-formaldehyde and then immobilized. The cells were analyzed by using FACS (Epics Elite Flow Cytometer). […]
A general note: A flow cytometer gives signals particle by particle.

For experiment [2], the target named is T1, G6sec2 (Homo sapiens, UniProt Q9BYG0).
T1 construct: made in house; host or cells: Sf21 insect cells infected with pVL1393-F2G6sec2-derived recombinant baculovirus
T1 sequence (Q9BYG0 39-378): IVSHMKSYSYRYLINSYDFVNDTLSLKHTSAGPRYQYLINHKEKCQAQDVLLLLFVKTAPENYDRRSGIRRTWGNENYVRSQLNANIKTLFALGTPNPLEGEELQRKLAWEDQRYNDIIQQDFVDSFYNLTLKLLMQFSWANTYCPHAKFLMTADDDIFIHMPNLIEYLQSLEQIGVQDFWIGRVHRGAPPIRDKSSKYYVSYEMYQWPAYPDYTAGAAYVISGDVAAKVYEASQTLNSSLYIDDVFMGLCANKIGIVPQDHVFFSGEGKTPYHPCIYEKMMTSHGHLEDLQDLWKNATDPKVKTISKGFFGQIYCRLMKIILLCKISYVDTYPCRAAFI
The experiment can be described thus: β1,3-N-acetylglucosaminyltransferase activity using unlabeled oligosaccharides as substrates (HPAE/PAD). It counts as biochemical. The protocol: The glycosyltransferase reaction was carried out as follows. The reaction was carried out at 37° C. for 16 hours in 40 μl of an assay solution [50 mmol/l MOPS (pH 7.5), 5 mmol/l UDP-GlcNAc (manufactured by SIGMA), 5 mmol/l MnCl2, 10 mmol/l sugar chain substrate, a purified enzyme solution (G6sec2)]. Next, the mixture was treated at 100° C. for 5 minutes and then centrifuged at 10,000×g for 20 minutes to obtain a supernatant, and a part thereof was analyzed using HPAE/PAD ([…]; manufactured by DIONEX). The method was specifically carried out according to a conventional method [Anal. Biochem., 189, 151-162 (1990), J. Biol. Chem., 273, 433-440 (1998)].
As a purified enzyme (G6sec2), […] of the enzyme obtained in the above (2) was used. As substrates, unlabeled oligosaccharides [lactose (Galβ1-4Glc) and LNnT] were used.
After the reaction on each substrate using an assay solution containing UDP-GlcNAc (saccharide donor) and an assay solution containing no donor, analysis was carried out using HPAE/PAD and peaks appeared only in the assay solution containing UDP-GlcNAc were defined as products. The product was identified using coincidence of its elution time with that of standard sugar chain as the index. As standard sugar chains, GlcNAcβ1-3Galβ1,4Glc and GlcNAcβ1-3Galβ1,4GlcNAcβ1-3Galβ1-4Glc were used.

The target in experiment [3] is T1, G6sec2. The experiment can be described thus: β1,3-N-acetylglucosaminyltransferase activity using glycolipids as substrates (purified enzyme). Type of experiment: biochemical. The note with it: for β1,3-N-acetylglucosaminyltransferase activity for the glycolipid / conversion efficiency: glycolipid substrate; for conversion efficiency: purified G6sec2 10 μl, 37° C., 16 hours. The protocol: Using glycolipids as the substrate, β1,3-N-acetylglucosaminyltransferase activity of the G6 polypeptide was measured according to known methods [FEBS, 462, 289 (1999), J. Biol. Chem., 269, 14730-14737 (1994), J. Biol. Chem., 267, 23507 (1992), J. Biol. Chem., 267, 2994 (1992)]. Specifically, the reaction was carried out at 37° C. for 16 hours in 20 μl of a reaction solution [150 mmol/l sodium cacodylate (pH 7.2), 10 mmol/l UDP-GlcNAc (manufactured by SIGMA), 480 μmol/l UDP—[^14C]GlcNAc (manufactured by Amersham), 0.4% Triton CF-54, 10 mmol/l MnCl2, […] glycolipid, purified enzyme (G6sec2)]. As the purified enzyme (G6sec2), 10 μl of the enzyme obtained in the above (2) was used. As glycolipids, lactosylceramide, paragloboside, galactosylceramide (Type I) and galactosylceramide (Type II) were used. Paragloboside was obtained from Yasunori Kushi at Tokyo Medical and Dental University. Other glycolipids were purchased from SIGMA. After completion of the reaction, 200 μl of 0.1 mol/l KCl was added and lightly centrifuged to obtain the supernatant. The supernatant was passed through Sep-Pak plus C18 Cartridge (manufactured by Waters) which had been washed once with 10 ml of methanol and equilibrated by washing twice with 10 ml of 0.1 mol/l KCl to adsorb the glycolipid in the supernatant onto the cartridge. After washing the cartridge twice with 10 ml of pure water for HPLC, the adsorbed glycolipid was eluted with 5 ml of methanol. After concentrating the eluate to about 10 μl using a vacuum dryer, the concentrated solution was plotted on a TLC plate (HPTLC plate Silica gel 60: manufactured by MERCK) and developed using a developing solvent comprising a composition of chloroform:methanol:water (containing 0.2% CaCl2)=65:35:8. After the development was carried out to a position 5 mm from the upper end of the TLC plate, the plate was dried and then the radioactivity incorporated into the glycolipid was measured using Bio Image Analyzer BAS 2000 (manufactured by Fuji Photo Film).

For experiment [4], the target named is T2, G6 polypeptide (Homo sapiens, UniProt Q9BYG0).
T2 construct: In order to obtain a DNA encoding the full-length G6 polypeptide, PCR was carried out; expressed in transfected cells; Triton X-100 cell extract
T2 sequence (Q9BYG0 1-378): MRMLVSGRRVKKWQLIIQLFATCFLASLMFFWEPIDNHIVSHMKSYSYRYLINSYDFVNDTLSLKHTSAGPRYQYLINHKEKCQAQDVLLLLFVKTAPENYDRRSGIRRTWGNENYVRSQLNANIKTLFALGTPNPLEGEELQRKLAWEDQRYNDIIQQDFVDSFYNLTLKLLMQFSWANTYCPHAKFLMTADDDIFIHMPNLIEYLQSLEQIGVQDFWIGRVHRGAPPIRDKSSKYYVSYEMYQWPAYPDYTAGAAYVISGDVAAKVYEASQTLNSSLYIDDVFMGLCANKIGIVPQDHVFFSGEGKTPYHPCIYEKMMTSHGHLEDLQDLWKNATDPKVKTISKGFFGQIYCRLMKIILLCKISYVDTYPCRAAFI
The experiment can be described thus: β1,3-N-acetylglucosaminyltransferase activity of cell extract of Namalwa cells transfected with pAMo-G6, glycolipid substrates. It counts as biochemical. The following applies: for conversion efficiency into the product: 250 μmol/l glycolipid, 37° C., 16 hours. The protocol:
β1,3-N-Acetylglucosaminyltransferase activity of G6 polypeptide was measured by using glycolipids as substrates according to known methods [FEBS, 462, 289 (1999), J. Biol. Chem., 269, 14730-14737 (1994), J. Biol. Chem., 267, 23507 (1992), J. Biol. Chem., 267, 2994 (1992)]. Specifically, the reaction was carried out at 37° C. for 16 hours in 20 μl of reaction solution [150 mmol/l sodium cacodylate (pH 7.2), 10 mmol/l UDP-GlcNAc (manufactured by SIGMA), 480 μmol/l UDP—[^14C]GlcNAc (manufactured by Amersham), 0.4% Triton CF-54, 10 mmol/l MnCl2, 250 μmol/l glycolipid, the cell extract prepared in the above (1) (20 μg as protein)]. As glycolipids, lactosylceramide (manufactured by SIGMA) and paragloboside (obtained from Yasunori Kushi at Tokyo Medical and Dental University) were used. After completion of the reaction, 200 μl of 0.1 mol/l KCl was added and lightly centrifuged to obtain the supernatant. The supernatant was passed through Sep-Pak plus C18 Cartridge (Waters), which had been washed once with 10 ml of methanol and equilibrated twice with 10 ml of 0.1 mol/l KCl, to adsorb the glycolipid in the supernatant onto the cartridge. After washing the cartridge twice with 10 ml of pure water for HPLC, the adsorbed glycolipid was eluted with 5 ml of methanol. After concentrating the eluate to about 10 μl by using a vacuum dryer, the concentrated solution was spotted on a TLC plate (HPTLC plate Silica gel 60: manufactured by MERCK) and developed using a developing solvent comprising a composition of chloroform:methanol:water (containing 0.2% CaCl2)=65:35:8. After the development was carried out to a position 5 mm from the upper end of the TLC plate, the plate was dried and then the radioactivity incorporated into the glycolipid was measured using Bio Image Analyzer BAS 2000 (manufactured by Fuji Photo Film).

Regarding `CC(=O)N[C@H]1[C@@H](OCc2ccccc2)O[C@H](CO)[C@H](O)[C@@H]1O` [benzyl-α-GalNAc], the “reactivity to OSK28 antibody in comparison with absence of inhibitor” value in experiment [1] (4 mmol/l) is reported as “sharply reduced”.

As to `OC[C@H]1O[C@@H](O[C@H]2[C@H](O)[C@@H](O)C(O)O[C@@H]2CO)[C@H](O)[C@@H](O)[C@H]1O` (stereo partly drawn) [lactose], the “conversion efficiency into the product” value in experiment [2] (unlabeled oligosaccharide 10 mmol/l, 37° C., 16 hours) amounted to 0.30%. Besides, the “relative activity, LNnT as substrate defined as 100%” value in experiment [2] (unlabeled oligosaccharides) was 62.5%. Turning to `O[C@H]1[C@H]2[C@H](O)CCCN2C[C@H]1O` [swainsonine], the “reactivity to OSK28 antibody” value in experiment [1] (10 μg/ml) was “reduced”.

Regarding galactosylceramide (Type I), the “β1,3-N-acetylglucosaminyltransferase activity for the glycolipid” value in experiment [3] (purified G6sec2) is listed as “did not show activity”. Consider galactosylceramide (Type II), for which, in experiment [3] (purified G6sec2), the “β1,3-N-acetylglucosaminyltransferase activity for the glycolipid” value is “did not show activity”. As for lactosylceramide, in experiment [3], the conversion efficiency worked out at 5.39%. For the same compound, the “conversion efficiency into the product” value in experiment [4] stood at 0.125%. In turn, paragloboside had a conversion efficiency in experiment [3] of 25.2%. For the same compound, the “activity relative to lactosylceramide as substrate defined as 100%” value is 468% in experiment [3] (glycolipid substrates, purified G6sec2) and 96% in experiment [4] (glycolipid substrates). For the same compound, the “conversion efficiency into the product” value in experiment [4] amounted to 0.126%.
